Laboratory results as given in PubChem BioAssay AID256 (DTP/NCI, 2004).
Several values for one entry are separate records, joined by “and”; a condition that tells them apart may be missing. Identical values can stand only once. Toxic doses and inconclusive results are not listed.

Tested on: CD2F1 mice, L1210 leukemia ip, survival T/C
Test: NCI In Vivo Anticancer Drug Screen. Data for tumor model L1210 Leukemia (intraperitoneal) in CD2F1 (CDF1) mice
Conditions: endpoint: mean survival time, higher = longer survival
Method in brief: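 Ratio T/C, where T is the treated-group value and C the vehicle-dosed control value, from mice implanted with a transplantable tumor.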

[1] = dose: 1.0 mg/kg/injection, schedule: Q01DX009 (ip), vehicle: Klucel (hydroxypropylcellulose) (HPC)
[2] = dose: 2.0 mg/kg/injection, schedule: Q01DX009 (ip), vehicle: Klucel (hydroxypropylcellulose) (HPC)
[3] = dose: 100.0 mg/kg/injection, schedule: Q01DX009 (ip), vehicle: saline with Tween-80
[4] = dose: 200.0 mg/kg/injection, schedule: Q01DX009 (ip), vehicle: saline with Tween-80
[5] = dose: 100.0 mg/kg/injection, schedule: Q04DX003 (ip), vehicle: saline with Tween-80
[6] = dose: 400.0 mg/kg/injection, schedule: Q01DX009 (ip), vehicle: saline with Tween-80

CCC(C(C)N1CC(=O)NC(=O)C1)N1CC(=O)NC(=O)C1 (centres undefined)
T/C (dose: 0.06 mg/kg/injection, schedule: Q01DX009 (ip), vehicle: Klucel (hydroxypropylcellulose) (HPC)): 109 % of control | T/C (dose: 0.13 mg/kg/injection, schedule: Q01DX009 (ip), vehicle: Klucel (hydroxypropylcellulose) (HPC)): 114 % of control | T/C (dose: 0.5 mg/kg/injection, schedule: Q04DX003 (ip), vehicle: Klucel (hydroxypropylcellulose) (HPC)): 119 % of control | T/C [1]: 120 % of control | T/C (dose: 1.0 mg/kg/injection, schedule: Q04DX003 (ip), vehicle: Klucel (hydroxypropylcellulose) (HPC)): 154 % of control | T/C [2]: 89 % of control | T/C (dose: 2.0 mg/kg/injection, schedule: Q04DX003 (ip), vehicle: Klucel (hydroxypropylcellulose) (HPC)): 178 % of control | T/C (dose: 4.0 mg/kg/injection, schedule: Q04DX003 (ip), vehicle: Klucel (hydroxypropylcellulose) (HPC)): 167 % of control | T/C (dose: 8.0 mg/kg/injection, schedule: Q04DX003 (ip), vehicle: Klucel (hydroxypropylcellulose) (HPC)): 100 % of control

CCCC[P+](c1ccccc1)(c1ccccc1)c1ccccc1
T/C (dose: 5.0 mg/kg/injection, schedule: Q01DX009 (ip), vehicle: saline sonified): 103 % of control | T/C (dose: 5.0 mg/kg/injection, schedule: Q04DX003 (ip), vehicle: saline with Tween-80): 97 % of control | T/C (dose: 10.0 mg/kg/injection, schedule: Q01DX009 (ip), vehicle: saline sonified): 110 % of control | T/C (dose: 10.0 mg/kg/injection, schedule: Q04DX003 (ip), vehicle: saline with Tween-80): 95 % of control | T/C (dose: 20.0 mg/kg/injection, schedule: Q01DX009 (ip), vehicle: saline sonified): 120 % of control | T/C (dose: 20.0 mg/kg/injection, schedule: Q04DX003 (ip), vehicle: saline with Tween-80): 98 % of control

COc1cc(C(=O)NC(=S)Nc2ccc3ccccc3c2)cc(OC)c1OC
T/C [3]: 90 % of control | T/C [4]: 94 % of control

O=C1C=CC(=O)c2ccccc21
T/C [1]: 94 % of control | T/C (dose: 1.25 mg/kg/injection, schedule: Q04DX003 (ip), vehicle: saline with Tween-80): 104 % of control | T/C [2]: 102 % of control | T/C (dose: 2.5 mg/kg/injection, schedule: Q04DX003 (ip), vehicle: saline with Tween-80): 95 % of control | T/C (dose: 4.0 mg/kg/injection, schedule: Q01DX009 (ip), vehicle: Klucel (hydroxypropylcellulose) (HPC)): 102 % of control

CNCCOc1ccc(Cl)cc1
T/C (dose: 25.0 mg/kg/injection, schedule: Q01DX009 (ip), vehicle: saline with Tween-80): 94 % of control | T/C (dose: 25.0 mg/kg/injection, schedule: Q04DX003 (ip), vehicle: saline with Tween-80): 96 % of control | T/C (dose: 50.0 mg/kg/injection, schedule: Q01DX009 (ip), vehicle: saline with Tween-80): 96 % of control | T/C (dose: 50.0 mg/kg/injection, schedule: Q04DX003 (ip), vehicle: saline with Tween-80): 113 % of control | T/C [3]: 96 % of control | T/C [5]: 96 % of control and 97 % of control

Cc1ccc(S(=O)(=O)N2CCC2)cc1
T/C [3]: 98 % of control | T/C [5]: 100 % of control | T/C [4]: 102 % of control | T/C (dose: 200.0 mg/kg/injection, schedule: Q04DX003 (ip), vehicle: saline with Tween-80): 100 % of control | T/C [6]: 96 % of control | T/C (dose: 400.0 mg/kg/injection, schedule: Q04DX003 (ip), vehicle: saline with Tween-80): 97 % of control

O=C(O)c1cc(-c2ccc(-c3ccc(-c4cc(C(=O)O)c5cc(Cl)ccc5n4)cc3)cc2)nc2ccc(Cl)cc12
T/C [3]: 91 % of control | T/C [4]: 91 % of control | T/C [6]: 100 % of control

O=C(O)CCC(NC(=O)c1ccccc1)C(=O)O (centres undefined)
T/C (dose: 100.0 mg/kg/injection, schedule: Q01DX001 (ip), vehicle: Klucel (hydroxypropylcellulose) (HPC)): 96 % of control | T/C (dose: 200.0 mg/kg/injection, schedule: Q01DX001 (ip), vehicle: Klucel (hydroxypropylcellulose) (HPC)): 96 % of control | T/C (dose: 400.0 mg/kg/injection, schedule: Q01DX001 (ip), vehicle: Klucel (hydroxypropylcellulose) (HPC)): 100 % of control

C[N+]1(C)CCC(=O)CC1
T/C [3]: 101 % of control

CCCCCCCCCCCCSS(=O)(=O)c1ccc(C)cc1
T/C (dose: 100.0 mg/kg/injection, schedule: Q04DX003 (ip), vehicle: other): 95 % of control | T/C (dose: 200.0 mg/kg/injection, schedule: Q04DX003 (ip), vehicle: other): 95 % of control | T/C (dose: 400.0 mg/kg/injection, schedule: Q04DX003 (ip), vehicle: other): 95 % of control
